# Like-named read-outs stand apart in the source and are kept apart here.
# How the values were obtained:
# [1] = test system: HIEC6 human healthy intestinal cells; experiment: MTT cell viability assay, HIEC6; assay type: cell-based; settings: for IC50: 48 h
# Experimental: HIEC6 human healthy intestinal cells and HCT 116 and HT-29 human colon cancer cells were supplied by ATCC. Colon cancer cells were cultured in Dulbecco’s modified Eagle’s medium (DMEM) for HCT 116 and HT-29 supplemented with fetal bovine serum (10%). HIEC6 cells were cultured in Opti-MEM supplemented with fetal bovine serum (4%), HEPES (20 mM), glutamine (10 mM), and epidermal growth factor (10 ng/mL). Cells were maintained at 37 °C in a humidified atmosphere containing 5% CO2. Cells were seeded at 30% confluence in DMEM for HCT 116 and in Opti-MEM for HIEC6; after cell adhesion, HIEC6 cells were cultured in DMEM for 24h before being treated. All cells were treated with the indicated components at concentrations of 0.25–50 μM and incubated for 1–5 days as specified.
# The MTT assay relies on a colorimetric reaction based on the capacity of living cells to reduce MTT to formazan and change the color to purple, which is easily measured by colorimetry. This assay estimates the cellular viability after the indicated treatments. Cells were treated with MTT (1:10 in culture medium) and incubated at 37 °C for 3 h for HCT 116 and HT-29 or 6 h for HIEC6. After removal of the medium, the formazan was resuspended in DMSO, transferred to p96 plates, and analyzed by a SpectraFLUOR (Tecan) at 542 nm. In all cases, viability was measured in duplicates of each point in three independent experiments.
# HCT 116 cells = experiment: Trypan blue exclusion test; assay type: cell-based, human; settings: HCT 116, 0.5 μM, 2 days
# Experimental: HCT 116 cells were harvested by trypsinization followed by centrifugation at 500g for 5 min. The cell pellet was resuspended in 1 mL of PBS. Equal volumes of trypan blue (Bio-Rad cat. no. 1450021) 0.4% and cell suspension were mixed and incubated for 1–3 min at room temperature, and cell counting was carried out using a TC20 Automated Cell Counter (Bio-Rad cat. no. 1450102). The percentage of viable cells was calculated by dividing the number of viable cells per milliliter by the number total of cells per milliliter) × 100. Representative images were acquired using a Zeis light microscope with a 20× objective.
# [2] = 195Pt NMR reduction kinetics with ascorbic acid; assay type: physicochemical; settings: AsA 4:1 excess, DMSO/D2O (4:1), 37 °C, 2, 6, 24 h
# Experimental: AsA presents an intracellular concentration of 1 mM, whereas the GSH concentration is 2 mM.[38] This reactivity was monitored by ^195Pt NMR at different times. Thus, by analyzing the different regions where the signals of Pt(II)/Pt(IV) species appear, it is possible to identify and assign the different compounds formed during the reaction. In most cases, the regions where the Pt(II) and Pt(IV) signals appear are separated by more than 3000 ppm.[33]
# We first studied the reduction of the complexes against AsA, monitoring the reaction in both the Pt(IV) and Pt(II) region at 2, 6, and 24 h. In both cases, we used a mixture of DMSO/D2O (4:1) to reach the solubilization of the complexes and the AsA. In the Pt(IV)-biSi-1 reduction experiment, during the first hour, only the signal at 1210 ppm appeared in the Pt(IV) region (Figure S13A), which corresponds to the original complex, and no signal was detected in the Pt(II) region.
# Each solution was then slowly added to 100 μL of a solution of the corresponding reducing agent (AsA or GSH in an excess of 4:1 against each complex) in D2O at 37 °C. After that, 100 μL of DMSO-d6 was added carefully to each mixture, reaching a final concentration of […] (DMSO-d6/D2O). All of these mixtures were performed using a thermoshaker. Each sample was monitored by ^195Pt NMR at 2, 6, and 24 h.
# [3] = Stability in DMEM by 195Pt NMR; assay type: physicochemical; settings: DMSO-d6/DMEM 1:4, 37 °C, 0, 24, 48, 120 h
# Text: We then decided to evaluate the stability of the two Pt(IV) complexes in the medium (DMEM) used to carry out the in vitro experiments, monitoring their kinetics by ^195Pt NMR at different times to evaluate the possible species formed over time. DMEM is supplemented with proteins and other molecules essential for cell growth (Experimental Section). Thus, similar to the reduction assays, we analyzed the Pt(II)/Pt(IV) region where the expected species appear. […] Both Pt(IV)/Pt(II) signals disappeared after 48 h, most likely again because of the binding of the complex to the proteins.
# To each solution was then slowly and carefully added 300 μL of DMEM to avoid the precipitation of the complex, reaching a final concentration of 1:4 (DMSO-d6/DMEM). All these mixtures were performed using a thermoshaker. Each sample was monitored by ^195Pt NMR at 0, 24, 48, and 120 h.
# [4] = test system: HCT 116 colon carcinoma subcutaneous tumors; experiment: Subcutaneous HCT 116 tumor model in nude mice; assay type: in vivo, athymic nude Foxn1nu mice
# Text: Tumor growth was monitored until tumors in the control group reached the ethically allowed size. […] On the other hand, many types of cancer cause a general increase in lactate dehydrogenase (LDH), and it is considered a nonspecific tumor marker.[57]
# (§1) To establish the subcutaneous tumor, 2 × 10^6 HCT 116 colon carcinoma cells were resuspended 1:1 in culture media and Matrigel (BD) and injected subcutaneously. Six to eight week old female athymic nude Foxn1nu mice (Harlan Iberica) were used for each point. […] Two therapeutic approaches were compared: acute and chronic (see diagram in Figure 5). Acute treatment was performed (three injections of 10 mg/kg); chronic treatment relied on injections of 1 mg/kg every 3–4 days. […] Tumor growth was monitored by personnel unaware of the group distribution. Experiments were finalized when control animals achieved the maximum tumor size approved by the Ethical Committee. Animals were sacrificed by euthanasia by CO2 inhalation. Selected organs were collected from each animal for histopathological analysis. Samples were fixed in 4% paraformaldehyde for 2 h followed by cold 70% ethanol. Plasma serum was collected to determine hepatic and renal toxicity of treatments using a SPIN200E automatic bioanalyzer (Spinreact).
# [5] = In vivo toxicity and tolerance in tumor-bearing mice; parameters: species or system athymic nude Foxn1nu mice
# Text: The in vitro results encouraged us to explore the translational potential in a preclinical in vivo model of nude mice with grafted tumor cells. […] Tumor growth was monitored until tumors in the control group reached the ethically allowed size. […] On the other hand, many types of cancer cause a general increase in lactate dehydrogenase (LDH), and it is considered a nonspecific tumor marker.[57] Both treatments reduced LDH levels compared to those of untreated animals (PBS), reflecting the response to treatment.
# as §1
# [6] = mice after treatment, versus cisplatin
smiles,measurement,setting,value
"CC(C)N.CC(C)N.CCO[Si](CCCNC(=O)[O][Pt]([Cl])([Cl])[O]C(=O)NCCC[Si](OCC)(OCC)OCC)(OCC)OCC [Pt(IV)-biSi-2, cis-Dichloro(diisopropylamine)-trans-[3-(triethoxysilyl)propylcarbamate]platinum(IV)]",Fold higher concentration needed to reduce nontumorigenic intestinal cell viability by 50%,[1]; IC50 HIEC6 versus IC50 HCT 116,3.7 fold
same,"Cell viability, HIEC6 0.5uM 2 days","[1]; MTT, 0.5 uM, 2 days",92.5 ± 0.9%
same,"Cell viability, HIEC6 0.5uM 5 days","[1]; MTT, 0.5 uM, 5 days",84.1 ± 4.7%
same,Reduction in viability of healthy cells (HIEC6),"[1]; MTT, 5 μM, 2 days",60%
same,"Cell viability, HIEC6 5uM 2 days","[1]; MTT, 5 uM, 2 days, (final complexes, Figure 3B)",41.2 ± 1.5%
same,IC50,"[1]; MTT, Figure 3C and text, read-out: IC50 (μM), HIEC6",3.47 µM
same,IC50,"[1]; MTT, supplementary CSV, read-out: IC50 (uM) HIEC6",3.5 ± 0.6 µM
same,"Cell viability, HIEC6 […] 2 days","[1]; MTT, 2 days",97.8 ± 4.0%
same,"Cell viability, HIEC6 […] 2 days","[1]; MTT, second (last) column of this head",98.8 ± 6.1%
same,Reduction of viability by trypan blue staining,HCT 116 cells,approximately 60%
same,Reduction of the Pt(IV) complex by AsA (Pt(IV) signal in 195Pt NMR),[2],no signals were observed in the Pt(IV) region after reaction for 2 h
same,Stability in DMEM (Pt(IV) signal in 195Pt NMR),[3],suffered a marked decrease after 24 h
same,Tumor volume versus control (PBS),"[4]; i.p., acute and chronic treatments",significantly reduced tumor volume
same,Tumor growth compared with cisplatin,"[4]; i.p., acute and chronic treatments, Pt concentration one-third that of cisplatin",reduced tumor growth more than cisplatin
same,LDH levels (tumor marker),"[4]; serum, versus cisplatin treatment",reduced LDH levels significantly more
same,Side effects (weight loss greater than 5% or abnormal postures) or deaths,[5]; acute and chronic treatment,No side effects (weight loss greater than 5% or abnormal postures) or deaths of the mice were observed
same,Hepatic toxicity (uric acid and GPT levels in plasma),[5]; [6],significantly lower
same,Renal toxicity (creatinine levels in plasma),[5]; [6],significantly lower

# — article PMC11056991, “Promising Anticancer Prodrugs Based on Pt(IV) Complexes with Bis-organosilane Ligands in Axial Positions” (Journal of Medicinal Chemistry, 2024)
